Results: US20070049564A1 (Wyeth, priority 2005, published 2007)
Where two headings read alike, the source gives them in different places.

Experiments:
E. coli GC 2231 = experiment: MIC, broth microdilution; conditions: Escherichia coli, GC2231, E. coli GC 2231
E. coli GC 2232 = experiment: MIC, broth microdilution; conditions: Escherichia coli, GC2232, E. coli GC 2232
Description: Antimicrobial susceptibility testing. The in vitro activities of the antibiotics are determined by the broth microdilution method as recommended by the National Committee for Clinical Laboratory Standards (NCCLS) (1). Mueller-Hinton II broth (MHBII)(BBL Cockeysville, Md.) is the medium employed in the testing procedures. Microtiter plates containing serial dilutions of each antimicrobial agent are inoculated with each organism to yield the appropriate density (10^5 CFU/ml) in a 100 μl final volume. The plates are incubated for 18-22 hours at 35° C. in ambient air.
Representative compounds were first incubated in mouse serum for an hour prior to the in vitro testing against a panel of selected gram-positive and gram-negative bacteria strains. All compounds were also pre-incubated in water for an hour prior to testing as control. Representative compounds of Formula I were incubated in human serum prior to MIC determination.

E. coli GC 2272 = experiment: MIC, broth microdilution; conditions: Escherichia coli, GC2272, E. coli GC 2272
E. coli GC 4560 = experiment: MIC, broth microdilution; conditions: Escherichia coli, GC4560, E. coli GC 4560
E. coli GC 6465 = experiment: MIC, broth microdilution; conditions: Escherichia coli, GC6465, E. coli GC 6465
E. coli GC 3226 = experiment: MIC, broth microdilution; conditions: Escherichia coli, GC3226, E. coli GC 3226
E. coli GC 2203 = experiment: MIC, broth microdilution; conditions: Escherichia coli, GC2203, E. coli GC 2203
S. typhimurium GC 2172 = experiment: MIC, broth microdilution; conditions: Salmonella enterica, TYPHIMURIUM, S. typhimurium GC 2172
S. aureus GC 6466 = experiment: MIC, broth microdilution; conditions: Staphylococcus aureus, GC6466, S. aureus GC 6466
S. aureus GC 6467 = experiment: MIC, broth microdilution; conditions: Staphylococcus aureus, GC6467, S. aureus GC 6467
S. aureus GC 4536 = experiment: MIC, broth microdilution; conditions: Staphylococcus aureus, GC4536, S. aureus GC 4536
S. aureus GC 6469 = experiment: MIC, broth microdilution; conditions: Staphylococcus aureus, GC6469, S. aureus GC 6469
E. faecalis GC 4555 = experiment: MIC, broth microdilution; conditions: Enterococcus faecalis, GC4555, E. faecalis GC 4555
E. faecalis GC 2265 = experiment: MIC, broth microdilution; conditions: Enterococcus faecalis, GC2265, E. faecalis GC 2265
E. faecalis GC 2267 = experiment: MIC, broth microdilution; conditions: Enterococcus faecalis, GC2267, E. faecalis GC 2267
E. faecium GC 2243 = experiment: MIC, broth microdilution; conditions: Enterococcus faecium, GC2243, E. faecium GC 2243
S. pneumoniae* GC 4465 = experiment: MIC, broth microdilution; conditions: Streptococcus pneumoniae, S. pneumoniae* GC 4465
S. agalactiae GC 4564 = experiment: MIC, broth microdilution; conditions: Streptococcus agalactiae, GC4564, S. agalactiae GC 4564
E. coli = experiment: Range of MIC for E. coli strains; conditions: Escherichia coli
Staph. = experiment: Range of MIC for Staph. strains, including MRSA; conditions: Staphylococcus aureus, MRSA

Measured: MIC

CCCN(CC(=O)Nc1cc(N(C)C)c2c(c1O)C(=O)C1=C(O)[C@]3(O)C(=O)C(C(N)=O)=C(O)[C@@H](N(C)C)[C@@H]3C[C@@H]1C2)C(=O)OCOC(=O)C(C)C [Example 10, ({[(2-{[(5aR,6aS,7S,10aS)-9-(aminocarbonyl)-4,7-bis(dimethylamino)-1,8,10a,11-tetrahydroxy-10,12-dioxo-5,5a,6,6a,7,10,10a,12-octahydrotetracen-2-yl]amino}-2-oxoethyl)(propyl)amino]carbonyl}oxy)methyl 2-methylpropanoate]
< 0.06 µg/mL: E. faecium GC 2243; Mouse Serum pre-incubation | S. pneumoniae* GC 4465; Mouse Serum pre-incubation | S. pneumoniae* GC 4465; Water pre-incubation | S. agalactiae GC 4564; Mouse Serum pre-incubation
4 µg/mL: S. typhimurium GC 2172; Mouse Serum pre-incubation
2 µg/mL: E. coli GC 2231; Mouse Serum pre-incubation | S. aureus GC 6467; Mouse Serum pre-incubation | S. aureus GC 6467; Water pre-incubation | S. aureus GC 6469; Water pre-incubation | E. faecalis GC 2267; Water pre-incubation
0.12 to 2 µg/mL: Staph.; read-out: Range of MIC, Staph (Water) | Staph.; read-out: Range of MIC, Staph. (water)
4 to 32 µg/mL: E. coli; read-out: Range of MIC, E. coli (Water) | E. coli; read-out: Range of MIC, E. coli (water)
0.25 to 2 µg/mL: E. coli; 20 h, read-out: Range of MIC, E. coli (Mouse Serum) | E. coli; read-out: Range of MIC, E. coli (mouse serum) | Staph.; read-out: Range of MIC, Staph (Mouse Serum) | Staph.; read-out: Range of MIC, Staph. (mouse serum)
> 64 µg/mL: E. coli GC 6465; Water pre-incubation | S. typhimurium GC 2172; Water pre-incubation
0.12 µg/mL: E. coli GC 4560; Mouse Serum pre-incubation | E. coli GC 4560; Water pre-incubation | S. aureus GC 6466; Mouse Serum pre-incubation | S. aureus GC 6466; Water pre-incubation | E. faecium GC 2243; Water pre-incubation | S. agalactiae GC 4564; Water pre-incubation
0.25 µg/mL: S. aureus GC 4536; Mouse Serum pre-incubation
32 µg/mL: E. coli GC 2231; Water pre-incubation
1 µg/mL: S. aureus GC 6469; Mouse Serum pre-incubation | E. faecalis GC 4555; Water pre-incubation | E. faecalis GC 2265; Mouse Serum pre-incubation | E. faecalis GC 2265; Water pre-incubation | E. faecalis GC 2267; Mouse Serum pre-incubation
16 µg/mL: E. coli GC 3226; Water pre-incubation
8 µg/mL: E. coli GC 2232; Water pre-incubation | E. coli GC 2272; Water pre-incubation | E. coli GC 6465; Mouse Serum pre-incubation | E. coli GC 2203; Water pre-incubation
0.5 µg/mL: E. coli GC 2232; Mouse Serum pre-incubation | E. coli GC 2272; Mouse Serum pre-incubation | E. coli GC 3226; Mouse Serum pre-incubation | E. coli GC 2203; Mouse Serum pre-incubation | S. aureus GC 4536; Water pre-incubation | E. faecalis GC 4555; Mouse Serum pre-incubation
